According to patent publication EP4772514A1, “MACROCYCLIC COMPOUNDS, PREPARATION METHOD THEREFOR, AND USE THEREOF” (Genfleet Therapeutics (Shanghai) Inc., priority 2023, dated 2025):
Where two headings read alike, the source gives them in different places.

How the values were obtained:
Format in all cases: cell-based
p-ERK [1] = assay: Cell p-ERK assay (HTRF, Advance ERK phospho-T202/Y204 kit) in AsPC-1 cells; conditions: AsPC-1, human pancreatic cancer cell strain, KRAS G12D mutation, 3 h compound incubation
How it was run: (§1)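 Cells with endogenous KRAS mutations, AsPC-1 (G12D) and NCI-H441 (G12V), were plated overnight and then exposed to compound for 3 h at 37 °C (final 0.1% DMSO, 10% FBS medium). ERK T202/Y204 phosphorylation in lysates was read by HTRF, and IC50 was derived from four-parameter curves of inhibition relative to DMSO and blank controls.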

AsPC-1 cells = assay: 3D cell proliferation assay (CellTiter Glo-3D) in AsPC-1 cells; conditions: AsPC-1, human pancreatic cancer cell strain, KRAS G12D mutation, 3D culture, 2% FBS, 5 days, read-out: AsPC-1 AP IC50
How it was run: (§2)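 KRAS^G12V NCI-H441 and KRAS^G12D AsPC-1 cells (800 cells/well each) grown in RPMI-1640 with 2% FBS and treated the day after seeding with 3.16-fold compound dilutions (0.1% DMSO) for 5 days at 37 °C. Viability by CellTiter-Glo 3D luminescence; inhibition versus DMSO and cell-free controls, IC50 from four-parameter fit.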

p-ERK [2] = assay: Cell p-ERK assay (HTRF, Advance ERK phospho-T202/Y204 kit) in NCI-H441 cells; conditions: NCI-H441, human non-small cell lung cancer cell strain, KRAS G12V mutation, 3 h compound incubation
How it was run: as §1

NCI-H441 cells = assay: 3D cell proliferation assay (CellTiter Glo-3D) in NCI-H441 cells; conditions: NCI-H441, human lung cancer cell strain, KRAS G12V mutation, 3D culture, 2% FBS, 5 days, read-out: H441 AP IC50
How it was run: as §2

Row | SMILES | IC50 (p-ERK [1]; ASPC1) [nM] | IC50 (AsPC-1 cells; ASPC1, 120 h) [nM] | IC50 (p-ERK [2]; Homo sapiens, NCI-H441, 3 h) [nM] | IC50 (NCI-H441 cells; Homo sapiens, NCI-H441, 120 h) [nM] | IC50 (p-ERK [1]) [nM] | IC50 (AsPC-1 cells) [nM] | IC50 (p-ERK [2]) [nM] | IC50 (NCI-H441 cells) [nM]
1 | CCn1cc2c(c1-c1cc(C#CCN3CCS(=O)(=O)CC3)cnc1[C@H](C)OC)CC(C)(C)COC(=O)[C@@H]1CCCN(N1)C(=O)[C@@H](NC(=O)[C@H]1[C@@H]3COC[C@@H]31)Cc1nc(cs1)/C=C/2 (atropisomer, axis not shown; (Ra)) [Compound Z130, (1R,5S,6r)-N-((4^2Z,8^3S,2E,6S)-(Ra)-1^5-(5-(3-(1,1-dioxidothiomorpholino)prop-1-yn-1-yl)-2-((S)-1-methoxyethyl)pyridin-3-yl)-1^1-ethyl-12,12-dimethyl-7,9-dioxo-8^1,8^2,8^3,8^4,8^5,8^6-hexahydro-1^1H -10-oxa-4(4,2)-thiazola-8(1,3)-pyridazina-1(3,4)-pyrrolacyclotridecaphan-2-en-6-yl)-3-oxabicyclo[3.1.0]hexane-6-carboxamide] | 0.94 | 0.36 | 0.54 | 0.41 | – | – | – | –
2 | CCn1c(-c2cc(C#CCN3CCS(=O)(=O)CC3)cnc2[C@H](C)OC)c2c3cc(ccc31)NC(=O)OC[C@H](NC(=O)[C@H]1[C@H](C)[C@@H]1C)C(=O)N1CCC[C@H](N1)C(=O)OCC(C)(C)C2 (atropisomer, axis not shown; (Ra)) [Compound Z36, (1r,2R,3S)-N-((7^3S,9S)-1^2-(5-(3-(1,1-dioxidothiomorpholino)prop-1-yn-1-yl)-2-((S)-1-methoxyethyl)pyridin-3-yl)-1^1-ethyl-(Ra)-3,3-dimethyl-6,8,12-trioxo-7^1,7^2,7^3,7^4,7^5,7^6-hexahydro-1^1H-5,11-dioxa-13-aza-1(3,5)-indola-7(3,1)-pyridazinaocycloundecan-9-yl)-2,3-dimethylcyclopropane-1-carboxamide] | 230 | 374 | 40.4 | 40.6 | – | – | – | –
3 | CO[C@@H](C)c1ncc(C#CCN2CCS(=O)(=O)CC2)cc1-c1c2c(nn1C(C)C)/C=C/c1csc(n1)C[C@H](NC(=O)[C@H]1[C@H](C)[C@@H]1C)C(=O)N1CCC[C@H](N1)C(=O)OCC(C)(C)C2 (atropisomer, axis not shown) [Compound Z15A, (1r,2R,3S)-N-((4^2Z,8^3S,2E,6S)-1^5-(5-(3-(1,1-dioxidothiomorpholino)prop-1-yn-1-yl)-2-((S)-1-methoxyethyl)pyridin-3-yl)-1^1-isopropyl-12,12-dimethyl-7,9-dioxo-8^1,8^2,8^3,8^4,8^5 3^6-hexahydro-1^1H-10-oxa-4(4,2)-thiazola-8(1,3)-pyridazina-1(3,4)-pyrrolacyclotridecaphan-2-en-6-yl)-2,3-dimethylcyclopropane-1-carboxamide] | 30 | 22.7 | 7.99 | 7.63 | – | – | – | –
4 | CCn1cc2c(c1-c1cc(C#CCN3CCOCC3)cnc1[C@H](C)OC)CC(C)(C)COC(=O)[C@@H]1CCCN(N1)C(=O)[C@@H](NC(=O)[C@H]1[C@H](C)[C@@H]1C)Cc1nc(cs1)/C=C/2 (atropisomer, axis not shown; (Ra)) [Compound Z172, (1r,2R,3S)-N-((4^2Z, 8^1S, 2E, 6S)-1^1-ethyl-(Ra)-1^5-(2-((S)-1-methoxyethyl)-5-(3-morpholinoprop-1-yn-1-yl)pyridin-3-yl)-12,12-dimethyl-7,9-dioxo-8^1,8^2,8^3,8^4,8^5,8^6-hexahydro-1^1H-10-oxa-4(4,2)-thiazola-8(1,3)-pyridazina-1(3,4)-pyrrolacyclotridecaphan-2-en-6-yl)-2,3-dimethylcyclopropane-1-carboxamide] | 0.74 | 0.4 | 0.75 | 0.41 | – | – | – | –
5 | CCn1cc2c(c1-c1cc(N3CCN(C)CC3)cnc1[C@H](C)OC)CC(C)(C)COC(=O)[C@@H]1CCCN(N1)C(=O)[C@@H](NC(=O)[C@H]1[C@H](C)[C@@H]1C)Cc1nc(cs1)/C=C/2 (single isomer, unassigned) [Compound Z8] | 4.98 | 2.37 | 4.74 | 2.39 | – | – | – | –
6 | CCn1c(F)c2c(c1-c1cc(N3CCN(C)CC3)cnc1C(C)OC)CC(C)(C)COC(=O)C1CCCN(N1)C(=O)C(NC(=O)C1C(C)C1C)Cc1nc(cs1)C=C2 [Compound Z75, (1r,2S,3R)-N-((4^2Z,8^3R,2E,6R)-1^1-ethyl-1^2-fluoro-1^5-(2-((S)-1-methoxyethyl)-5-(4-methylpiperazin-1-yl)pyridin-3-yl)-12,12-dimethyl-7,9-dioxo-8^1,8^2,8^3,8^4,8^5,8^6-hexahydro-1^1H-10-oxa-4(4,2)-thiazola-8(1,3)-pyridazina-1(3,4)-pyrrolacyclotridecaphan-2-en-6-yl)-2,3-dimethylcyclopropane-1-carboxamide] | – | – | – | – | 1.46 | 2.17 | 1.3 | 1.85
7 | CCn1cc2c(c1-c1cc(C#CCN3CCCOCC3)cnc1[C@H](C)OC)CC(C)(C)COC(=O)[C@@H]1CCCN(N1)C(=O)[C@@H](NC(=O)[C@H]1[C@H](C)[C@@H]1C)Cc1nc(cs1)/C=C/2 (atropisomer, axis not shown; (Ra)) [Compound Z69, (1r,2R,3S)-N-((4^2Z,8^3S,2E,6S)-(Ra)-1^5-(5-(3-(1,4-oxazepan-4-yl)prop-1-yn-1-yl)-2-((S)-1-methoxyethyl)pyridin-3-yl)-1^1-ethyl-12,12-dimethyl-7,9-dioxo-8^1,8^2,8^3,8^4,8^5,8^6-hexahydro-1^1H-10-oxa-4(4,2)-thiazola-8(1,3)-pyridazina-1(3,4)-pyrrolacyclotridecaphan-2-en-6-yl)-2,3-dimethylcyclopropane-1-carboxamide] | 1.54 | 0.67 | 0.9 | 0.58 | – | – | – | –

The remaining molecules from weak to strong by IC50 (p-ERK [1]; ASPC1), led by results:

Row | IC50 (p-ERK [1]; ASPC1) [nM] | IC50 (AsPC-1 cells; ASPC1, 120 h) [nM] | IC50 (p-ERK [2]; Homo sapiens, NCI-H441, 3 h) [nM] | IC50 (NCI-H441 cells; Homo sapiens, NCI-H441, 120 h) [nM] | IC50 (p-ERK [1]) [nM] | IC50 (AsPC-1 cells) [nM] | IC50 (p-ERK [2]) [nM] | IC50 (NCI-H441 cells) [nM] | SMILES
8 | 0.4 | 0.1 | 0.42 | 0.12 | – | – | – | – | CCn1c(F)c2c(c1-c1cc(C#CCN3CCC(C#N)CC3)cnc1[C@H](C)OC)CC(C)(C)COC(=O)[C@@H]1CCCN(N1)C(=O)[C@@H](NC(=O)[C@H]1[C@H](C)[C@@H]1C)Cc1nc(cs1)/C=C/2 (atropisomer, axis not shown; (Ra)) [Compound Z139, (1r, 2R, 3S)-N-((4^2Z, 8^3S,2E,6S)-(Ra)-1^5-(5-(3-(4-cyanopiperidin-1-yl)prop-1-yn-1-yl)-2-((S)-1-methoxyethyl)pyridin-3-yl)-1^1-ethyl-1^2-fluoro-12,12-dimethyl-7,9-dioxo-8^1,8^1,8^1,8^4,8^5,8^6-hexahydro-1^1H-10-oxa-4(4,2)-thiazola-8(1,3)-pyridazina-1(3,4)-pyrrolacyclotridecaphan-2-en-6-yl)-2,3-dimethylcyclopropane-1-carboxamide]
9 | 0.2 | 0.24 | 0.47 | 0.28 | – | – | – | – | CCn1cc2c(c1-c1cc(C#CCN3CCS(=O)(=O)CC3)cnc1[C@H](C)OC)CC(C)(C)COC(=O)[C@@H]1CCCN(N1)C(=O)[C@@H](NC(=O)[C@H]1[C@H](C)[C@@H]1C)Cc1nc(cs1)/C=C/2 (atropisomer, axis not shown; (Ra)) [Compound Z118, (1r,2R,3S)-N-((4^2Z,8^3S,2E,6S)-(Ra)-1^5-(5-(3-(1,1-dioxidothiomorpholino)prop-1-yn-1-yl)-2-((S)-1-methoxyethyl)pyridin-3-yl)-1^1-ethyl-12,12-dimethyl-7,9-dioxo-8^1,8^2,8^3,8^4,8^5,8^6-hexahydro-1^1H-10-oxa-4(4,2)-thiazola-8(1,3)-pyridazina-1(3,4)-pyrrolacyclotridecaphan-2-en-6-yl)-2,3-dimethylcyclopropane-1-carboxamide]
10 | 0.14 | 0.1 | 0.58 | 0.17 | – | – | – | – | CCn1cc2c(c1-c1cc(C#CCN3CCC(C#N)(CN)CC3)cnc1[C@H](C)OC)CC(C)(C)COC(=O)[C@@H]1CCCN(N1)C(=O)[C@@H](NC(=O)[C@H]1[C@H](C)[C@@H]1C)Cc1nc(cs1)/C=C/2 (atropisomer, axis not shown; (Ra)) [Compound Z65]
11 | 0.13 | 0.08 | 0.17 | 0.14 | – | – | – | – | CCn1cc2c(c1-c1cc(C#CCN3CCC(C#N)CC3)cnc1[C@H](C)OC)CC(C)(C)COC(=O)[C@@H]1CCCN(N1)C(=O)[C@@H](NC(=O)[C@H]1[C@H](C)[C@@H]1C)Cc1nc(cs1)/C=C/2 (atropisomer, axis not shown; (Ra)) [Compound Z49, (1r,2R,3S)-N-((4 ^2Z,8^3S,2E,6S)-(Ra)-1^5-(5-(3-(4-cyanopiperidin-1-yl)prop-1-yn-1-yl)-2-((S)-1-methoxyethyl)pyridin-3-yl)-1^1-ethyl-12,12-dimethyl-7,9-dioxo-8^1,8^2,8^3,8^4,8^5,8^6-hexahydro-1^1H-10-oxa-4(4,2)-thiazola-8(1,3)-pyridazina-1(3,4)-pyrrolacyclotridecaphan-2-en-6-yl)-2,3-dimethylcyclopropane-1-carboxamide]
